Results as given in patent US12178210B2, “Insect attractant and killing system” (priority 2020, dated 2024).
Read-outs that look alike come from different tables or passages of the source.

Experiments:
[1] = field, Valencia
Description: Every two weeks samples of the attractant were weighed to determine the mass. From the mass, the mass that had been released, the mass remaining, and the amount of ammonia released was determined.

[2] = for Attractant Release Rate (5-day average per time point): Ambient Temperature
Text: All prototype lure devices (i.e., the attractant receptacle and permeable membrane with enclosed volatile insect attractant) were constructed using polypropylene/calcium carbonate film (UV8) for the permeable membrane and Scotchpak™ (3M) polyester laminate film for the impermeable barrier material. Each lure device measured approximately 11.5 cm×5.5 cm with a 1.6 mm ( 1/16 in) diameter spherical punch in the impermeable layer exposing the membrane and an ˜8 mm ( 5/16 in) diameter heat seal around the circumference of the punch (referred to as a ring seal). […] Prior to being deployed the lures were weighed on an analytical balance (Sartorius, Universal; resolution of 0.01 g). Prototype lures were attached to a cord that ran the length of ventilated laboratory fume hood, with 5-8 cm (2-3 in) separating each lure in an open, ventilated room at the indicated temperature (18-20° C. or 39-41° C.). Every 2-3 days the lures were removed from the cord and weighed on the same scale. Lure weight was recorded and the weight loss (g/day) was calculated. In addition to prototype lures, two controls were included in the study consisting of a current Suterra lure product (WHF lure) and a competitor product (Comp. Prod. 1).

Compound: N.NC(=O)O [Ammonium Carbamate, ammonium carbamate]
- Avg. Mass Loss ([1]; week 0, ave. temp. 25.10 ° C): 0.00 g
- Avg. Mass Remaining ([1]; week 0, ave. temp. 25.10 ° C): 16.90 g
- Avg. Release Rate ([1]; week 0, ave. temp. 25.10 ° C): 0.000 g/day
- Avg. Mass Loss ([1]; week 2, ave. temp. 26.30 ° C): 0.75 g
- Avg. Mass Remaining ([1]; week 2, ave. temp. 26.30 ° C): 16.15 g
- Avg. Release Rate ([1]; week 2, ave. temp. 26.30 ° C): 0.054 g/day
- Avg. Mass Loss ([1]; week 4, ave. temp. 26.90 ° C): 1.75 g
- Avg. Mass Remaining ([1]; week 4, ave. temp. 26.90 ° C): 15.15 g
- Avg. Release Rate ([1]; week 4, ave. temp. 26.90 ° C): 0.071 g/day
- Avg. Mass Loss ([1]; week 6, ave. temp. 27.10 ° C): 2.65 g
- Avg. Mass Remaining ([1]; week 6, ave. temp. 27.10 ° C): 14.25 g
- Avg. Release Rate ([1]; week 6, ave. temp. 27.10 ° C): 0.064 g/day
- Avg. Mass Loss ([1]; week 8, ave. temp. 24.40 ° C): 3.48 g
- Avg. Mass Remaining ([1]; week 8, ave. temp. 24.40 ° C): 13.42 g
- Avg. Release Rate ([1]; week 8, ave. temp. 24.40 ° C): 0.059 g/day
- Avg. Mass Loss ([1]; week 10, ave. temp. 22.60 ° C): 4.17 g
- Avg. Mass Remaining ([1]; week 10, ave. temp. 22.60 ° C): 12.72 g
- Avg. Release Rate ([1]; week 10, ave. temp. 22.60 ° C): 0.050 g/day
- Avg. Mass Loss ([1]; week 12, ave. temp. 21.50 ° C): 4.82 g
- Avg. Mass Remaining ([1]; week 12, ave. temp. 21.50 ° C): 12.08 g
- Avg. Release Rate ([1]; week 12, ave. temp. 21.50 ° C): 0.046 g/day
- Avg. Mass Loss ([1]; week 14, ave. temp. 19.90 ° C): 5.38 g
- Avg. Mass Remaining ([1]; week 14, ave. temp. 19.90 ° C): 11.52 g
- Avg. Release Rate ([1]; week 14, ave. temp. 19.90 ° C): 0.040 g/day
- Avg. Mass Loss ([1]; week 16, ave. temp. 17.70 ° C): 5.72 g
- Avg. Mass Remaining ([1]; week 16, ave. temp. 17.70 ° C): 11.18 g
- Avg. Release Rate ([1]; week 16, ave. temp. 17.70 ° C): 0.024 g/day
- Avg. Mass Loss ([1]; week 18, ave. temp. 15.30 ° C): 6.02 g
- Avg. Mass Remaining ([1]; week 18, ave. temp. 15.30 ° C): 10.88 g
- Avg. Release Rate ([1]; week 18, ave. temp. 15.30 ° C): 0.021 g/day
- Avg. Mass Loss ([1]; week 20, ave. temp. 14.40 ° C): 6.26 g
- Avg. Mass Remaining ([1]; week 20, ave. temp. 14.40 ° C): 10.64 g
- Avg. Release Rate ([1]; week 20, ave. temp. 14.40 ° C): 0.017 g/day
- Avg. Mass Loss ([1]; week 24, ave. temp. 11.70 ° C): 6.36 g
- Avg. Mass Remaining ([1]; week 24, ave. temp. 11.70 ° C): 10.54 g
- Avg. Release Rate ([1]; week 24, ave. temp. 11.70 ° C): 0.004 g/day
- Avg. Mass Loss ([1]; week 28, ave. temp. […] C): 6.71 g
- Avg. Mass Remaining ([1]; week 28, ave. temp. […] C): 10.19 g
- Avg. Release Rate ([1]; week 28, ave. temp. […] C): 0.013 g/day
- Avg. Mass Loss ([1]; week 31, ave. temp. […] C): 7.22 g
- Avg. Mass Remaining ([1]; week 31, ave. temp. […] C): 9.67 g
- Avg. Release Rate ([1]; week 31, ave. temp. […] C): 0.024 g/day
- Avg. Mass Loss ([1]; week 35, ave. temp. 12.60 ° C): 7.63 g
- Avg. Mass Remaining ([1]; week 35, ave. temp. 12.60 ° C): 9.26 g
- Avg. Release Rate ([1]; week 35, ave. temp. 12.60 ° C): 0.015 g/day
- Avg. Mass Loss ([1]; week 38, ave. temp. 13.50 ° C): 8.07 g
- Avg. Mass Remaining ([1]; week 38, ave. temp. 13.50 ° C): 8.83 g
- Avg. Release Rate ([1]; week 38, ave. temp. 13.50 ° C): 0.021 g/day
- Avg. Mass Loss ([1]; week 39, ave. temp. 13.30 ° C): 8.24 g
- Avg. Mass Remaining ([1]; week 39, ave. temp. 13.30 ° C): 8.66 g
- Avg. Release Rate ([1]; week 39, ave. temp. 13.30 ° C): 0.024 g/day
- Avg. Mass Loss ([1]; week 41, ave. temp. 15.80 ° C): 8.55 g
- Avg. Mass Remaining ([1]; week 41, ave. temp. 15.80 ° C): 8.35 g
- Avg. Release Rate ([1]; week 41, ave. temp. 15.80 ° C): 0.022 g/day
- Avg. Mass Loss ([1]; week 43, ave. temp. 16.50 ° C): 8.79 g
- Avg. Mass Remaining ([1]; week 43, ave. temp. 16.50 ° C): 8.11 g
- Avg. Release Rate ([1]; week 43, ave. temp. 16.50 ° C): 0.017 g/day
- Avg. Mass Loss ([1]; week 46, ave. temp. 18.10 ° C): 9.45 g
- Avg. Mass Remaining ([1]; week 46, ave. temp. 18.10 ° C): 7.44 g
- Avg. Release Rate ([1]; week 46, ave. temp. 18.10 ° C): 0.032 g/day
- Avg. Mass Loss ([1]; week 47, ave. temp. 20.40 ° C): 9.75 g
- Avg. Mass Remaining ([1]; week 47, ave. temp. 20.40 ° C): 7.14 g
- Avg. Release Rate ([1]; week 47, ave. temp. 20.40 ° C): 0.043 g/day
- Release Rate ([2]; 40° C., 16 hours, UV8 membrane, 1.6 mm orifice): 0.49 g/day
- Release Rate ([2]; 40° C., 16 hours, second, unexplained block of rows): 0.02 g/day
- Release Rate ([2]; 40° C., 24 hours, UV8 membrane, 1.6 mm orifice): 0.49 g/day
- Release Rate ([2]; 40° C., 24 hours, second, unexplained block of rows): 0.01 g/day
- Release Rate ([2]; 40° C., 51 hours, UV8 membrane, 1.6 mm orifice): 0.46 g/day
- Release Rate ([2]; 40° C., 51 hours, second, unexplained block of rows): 0.01 g/day
- Release Rate ([2]; 40° C., 88 hours, UV8 membrane, 1.6 mm orifice): 0.45 g/day
- Release Rate ([2]; 40° C., 88 hours, second, unexplained block of rows): 0.04 g/day
- Release Rate ([2]; 40° C., 96 hours, UV8 membrane, 1.6 mm orifice): 0.46 g/day
- Release Rate ([2]; 40° C., 96 hours, second, unexplained block of rows): 0.06 g/day
- Release Rate ([2]; 40° C., 112 hours, UV8 membrane, 1.6 mm orifice): 0.46 g/day
- Release Rate ([2]; 40° C., 112 hours, second, unexplained block of rows): 0.08 g/day
- Release Rate ([2]; 40° C., 120 hours, UV8 membrane, 1.6 mm orifice): 0.46 g/day
- Release Rate ([2]; 40° C., 120 hours, second, unexplained block of rows): 0.09 g/day
- Release Rate ([2]; 40° C., 144 hours, UV8 membrane, 1.6 mm orifice): 0.46 g/day
- Release Rate ([2]; 40° C., 144 hours, second, unexplained block of rows): 0.11 g/day
- Release Rate ([2]; 40° C., 168 hours, UV8 membrane, 1.6 mm orifice): 0.46 g/day
- Release Rate ([2]; 40° C., 168 hours, second, unexplained block of rows): 0.13 g/day
- Attractant Release Rate (5-day average per time point) ([2]; day 5, 15 g, UV8 membrane, 1.6 mm orifice): 89.2 mg/day
- Attractant Release Rate (5-day average per time point) ([2]; day 10, 15 g, UV8 membrane, 1.6 mm orifice): 93.6 mg/day
- Attractant Release Rate (5-day average per time point) ([2]; day 15, 15 g, UV8 membrane, 1.6 mm orifice): 97.0 mg/day
- Attractant Release Rate (5-day average per time point) ([2]; day 20, 15 g, UV8 membrane, 1.6 mm orifice): 101.0 mg/day
- Attractant Release Rate (5-day average per time point) ([2]; day 25, 15 g, UV8 membrane, 1.6 mm orifice): 100.0 mg/day
- Attractant Release Rate (5-day average per time point) ([2]; day 30, 15 g, UV8 membrane, 1.6 mm orifice): 105.3 mg/day
- Attractant Release Rate (5-day average per time point) ([2]; day 40, 15 g, UV8 membrane, 1.6 mm orifice): 99.6 mg/day
- Attractant Release Rate (5-day average per time point) ([2]; day 49, 15 g, UV8 membrane, 1.6 mm orifice): 113.5 mg/day
- Attractant Release Rate (5-day average per time point) ([2]; day 55, 15 g, UV8 membrane, 1.6 mm orifice): 114.3 mg/day
- Release Rate ([2]; Ambient, 16 hours, UV8 membrane, 1.6 mm orifice): 0.09 g/day
- Release Rate ([2]; Ambient, 16 hours, second, unexplained block of rows): 0.00 g/day
- Release Rate ([2]; Ambient, 24 hours, UV8 membrane, 1.6 mm orifice): 0.10 g/day
- Release Rate ([2]; Ambient, 24 hours, second, unexplained block of rows): 0.01 g/day
- Release Rate ([2]; Ambient, 51 hours, UV8 membrane, 1.6 mm orifice): 0.10 g/day
- Release Rate ([2]; Ambient, 51 hours, second, unexplained block of rows): 0.00 g/day
- Release Rate ([2]; Ambient, 88 hours, UV8 membrane, 1.6 mm orifice): 0.10 g/day
- Release Rate ([2]; Ambient, 88 hours, second, unexplained block of rows): 0.02 g/day
- Release Rate ([2]; Ambient, 96 hours, UV8 membrane, 1.6 mm orifice): 0.10 g/day
- Release Rate ([2]; Ambient, 96 hours, second, unexplained block of rows): 0.02 g/day
- Release Rate ([2]; Ambient, 112 hours, UV8 membrane, 1.6 mm orifice): 0.10 g/day
- Release Rate ([2]; Ambient, 112 hours, second, unexplained block of rows): 0.02 g/day
- Release Rate ([2]; Ambient, 120 hours, UV8 membrane, 1.6 mm orifice): 0.10 g/day
- Release Rate ([2]; Ambient, 120 hours, second, unexplained block of rows): 0.00 g/day
- Release Rate ([2]; Ambient, 144 hours, UV8 membrane, 1.6 mm orifice): 0.10 g/day
- Release Rate ([2]; Ambient, 144 hours, second, unexplained block of rows): 0.00 g/day
- Release Rate ([2]; Ambient, 168 hours, UV8 membrane, 1.6 mm orifice): 0.10 g/day
- Release Rate ([2]; Ambient, 168 hours, second, unexplained block of rows): 0.00 g/day
- Attractant Release Rate (5-day average per time point) ([2]; day 5, CM): 393.2 mg/day
- Attractant Release Rate (5-day average per time point) ([2]; day 10, CM): 387.2 mg/day
- Attractant Release Rate (5-day average per time point) ([2]; day 15, CM): 362.0 mg/day
- Attractant Release Rate (5-day average per time point) ([2]; day 20, CM): 356.0 mg/day
- Attractant Release Rate (5-day average per time point) ([2]; day 25, CM): 331.6 mg/day
- Attractant Release Rate (5-day average per time point) ([2]; day 30, CM): 311.7 mg/day
- Attractant Release Rate (5-day average per time point) ([2]; day 35, CM): 306.5 mg/day
- Attractant Release Rate (5-day average per time point) ([2]; day 40, CM): 266.0 mg/day
- Attractant Release Rate (5-day average per time point) ([2]; day 45, CM): 191.6 mg/day
- Attractant Release Rate (5-day average per time point) ([2]; day 49, CM): 94.0 mg/day
- Attractant Release Rate (5-day average per time point) ([2]; day 55, CM): 10.3 mg/day
